Legend:
[1] = system: velvetleaf; test: Test Example 5: herbicidal effect by foliage application, plastic box (Table 20, symbol M); type: in vivo, velvetleaf (Abutilon theophrasti); details: foliage application, 3 weeks after application
In short: (§1)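 Sow seeds spot-wise in sterilized diluvial soil; cover with ~1.5 cm soil. Grow 14 days in greenhouse, 25° C. to 30° C. Spray foliage with emulsion diluted to predetermined amount. Rate effect after 3 weeks.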

[2] = system: green foxtail; test: Test Example 5: herbicidal effect by foliage application, plastic box (Table 20, symbol G); type: in vivo, green foxtail (Setaria viridis); details: foliage application, 3 weeks after application
In short: as §1

[3] = system: southern crabgrass; test: Test Example 4: herbicidal effect by soil treatment (Table 19, symbol F); type: in vivo, southern crabgrass (Digitaria ciliaris)
In short: (§2)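 Applied as a water-diluted emulsion, the compound was sprayed onto soil covering newly sown seeds. Evaluation came three weeks after application, in a greenhouse held at 25° C. to 30° C.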

[4] = system: southern crabgrass; test: Test Example 5: herbicidal effect by foliage application, plastic box (Table 20, symbol F); type: in vivo, southern crabgrass (Digitaria ciliaris); details: foliage application, 3 weeks after application
In short: as §1

[5] = system: lambsquarters; test: Test Example 4: herbicidal effect by soil treatment (Table 19, symbol O); type: in vivo, lambsquarters (Chenopodium album)
In short: as §2

[6] = system: barnyard grass; test: Test Example 3: herbicidal effect by foliage application, Wagner pot (Table 18, symbol H); type: in vivo, barnyard grass (Echinochloa crus-galli)
In short: (§3)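 Plants were sown in alluvial soil held under 0.1–0.5 cm standing water and grown 14 days in a greenhouse at 25–30 °C. An emulsifiable formulation, water-diluted to the set dose, was then sprayed onto the foliage, and effects were scored three weeks later using previously defined criteria.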

[7] = system: rice flat sedge; test: Test Example 3: herbicidal effect by foliage application, Wagner pot (Table 18, symbol E); type: in vivo, rice flat sedge (Cyperus iria)
In short: as §3

[8] = system: barnyard grass; test: Test Example 4: herbicidal effect by soil treatment (Table 19, symbol H); type: in vivo, barnyard grass (Echinochloa crus-galli)
In short: as §2

[9] = system: velvetleaf; test: Test Example 4: herbicidal effect by soil treatment (Table 19, symbol M); type: in vivo, velvetleaf (Abutilon theophrasti)
In short: as §2

[10] = system: blackgrass; test: Test Example 5: herbicidal effect by foliage application, plastic box (Table 20, symbol J); type: in vivo, blackgrass (Alopecurus myosuroides); details: foliage application, 3 weeks after application
In short: as §1

[11] = system: persian speedwell; test: Test Example 4: herbicidal effect by soil treatment (Table 19, symbol R); type: in vivo, Persian speedwell (Veronica persica)
In short: as §2

[12] = system: persian speedwell; test: Test Example 5: herbicidal effect by foliage application, plastic box (Table 20, symbol R); type: in vivo, Persian speedwell (Veronica persica); details: foliage application, 3 weeks after application
In short: as §1

[13] = system: redroot pigweed; test: Test Example 4: herbicidal effect by soil treatment (Table 19, symbol N); type: in vivo, redroot pigweed (Amaranthus retroflexus)
In short: as §2

[14] = system: wild oat; test: Test Example 4: herbicidal effect by soil treatment (Table 19, symbol I); type: in vivo, wild oat (Avena fatua)
In short: as §2

[15] = system: windgrass; test: Test Example 5: herbicidal effect by foliage application, plastic box (Table 20, symbol L); type: in vivo, windgrass (Apera spica-venti); details: foliage application, 3 weeks after application
In short: as §1

[16] = system: chickweed; test: Test Example 4: herbicidal effect by soil treatment (Table 19, symbol P); type: in vivo, common chickweed (Stellaria media)
In short: as §2

[17] = system: green foxtail; test: Test Example 4: herbicidal effect by soil treatment (Table 19, symbol G); type: in vivo, green foxtail (Setaria viridis)
In short: as §2

[18] = system: Italian ryegrass; test: Test Example 4: herbicidal effect by soil treatment (Table 19, symbol K); type: in vivo, Italian ryegrass (Lolium multiflorum)
In short: as §2

[19] = system: windgrass; test: Test Example 4: herbicidal effect by soil treatment (Table 19, symbol L); type: in vivo, windgrass (Apera spica-venti)
In short: as §2

[20] = system: Italian ryegrass; test: Test Example 5: herbicidal effect by foliage application, plastic box (Table 20, symbol K); type: in vivo, Italian ryegrass (Lolium multiflorum); details: foliage application, 3 weeks after application
In short: as §1

[21] = system: Chinese sprangletop; test: Test Example 3: herbicidal effect by foliage application, Wagner pot (Table 18, symbol D); type: in vivo, chinese sprangletop (Leptochloa chinensis)
In short: as §3

[22] = system: wild oat; test: Test Example 5: herbicidal effect by foliage application, plastic box (Table 20, symbol I); type: in vivo, wild oat (Avena fatua); details: foliage application, 3 weeks after application
In short: as §1

[23] = system: lambsquarters; test: Test Example 5: herbicidal effect by foliage application, plastic box (Table 20, symbol O); type: in vivo, lambsquarters (Chenopodium album); details: foliage application, 3 weeks after application
In short: as §1

[24] = system: blackgrass; test: Test Example 4: herbicidal effect by soil treatment (Table 19, symbol J); type: in vivo, blackgrass (Alopecurus myosuroides)
In short: as §2

[25] = system: barnyard grass; test: Test Example 5: herbicidal effect by foliage application, plastic box (Table 20, symbol H); type: in vivo, barnyard grass (Echinochloa crus-galli); details: foliage application, 3 weeks after application
In short: as §1

[26] = amount of applied herbicide 320 g/ha

Compound: COc1nn(C)c(=O)c(-c2c(-c3ccsc3)sc3ccccc23)c1O [1-192]
- effect on velvetleaf (M) ([1]; 80 g/ha): 0 (Herbicidal rate of 5% or less (almost no effect))
- effect on green foxtail (G) ([2]; 80 g/ha): 0 (Herbicidal rate of 5% or less (almost no effect))
- F: southern crabgrass, herbicidal effect rating ([3]; AAH 80 g/ha): 0 (Herbicidal rate of 5% or less (almost no effect))
- effect on southern crabgrass (F) ([4]; 80 g/ha): 0 (Herbicidal rate of 5% or less (almost no effect))
- O: lambsquarters, herbicidal effect rating ([5]; AAH 80 g/ha): 0 (Herbicidal rate of 5% or less (almost no effect))
- herbicidal effect on H (barnyard grass), rating 0-5 ([6]; 80 g/ha): 1 (Herbicidal rate of 5% or more and less than 20%)
- herbicidal effect on E (rice flat sedge), rating 0-5 ([7]; 80 g/ha): 4 (Herbicidal rate of 70% or more and less than 90%)
- H: barnyard grass, herbicidal effect rating ([8]; AAH 80 g/ha): 0 (Herbicidal rate of 5% or less (almost no effect))
- M: velvetleaf, herbicidal effect rating ([9]; AAH 80 g/ha): 0 (Herbicidal rate of 5% or less (almost no effect))
- effect on blackgrass (J) ([10]; 80 g/ha): 0 (Herbicidal rate of 5% or less (almost no effect))
- R: persian speedwell, herbicidal effect rating ([11]; AAH 80 g/ha): 0 (Herbicidal rate of 5% or less (almost no effect))
- effect on persian speedwell (R) ([12]; 80 g/ha): 3 (Herbicidal rate of 40% or more and less than 70%)
- N: redroot pigweed, herbicidal effect rating ([13]; AAH 80 g/ha): 0 (Herbicidal rate of 5% or less (almost no effect))
- I: wild oat, herbicidal effect rating ([14]; AAH 80 g/ha): 0 (Herbicidal rate of 5% or less (almost no effect))
- effect on windgrass (L) ([15]; 80 g/ha): 0 (Herbicidal rate of 5% or less (almost no effect))
- P: chickweed, herbicidal effect rating ([16]; AAH 80 g/ha): 3 (Herbicidal rate of 40% or more and less than 70%)
- G: green foxtail, herbicidal effect rating ([17]; AAH 80 g/ha): 0 (Herbicidal rate of 5% or less (almost no effect))
- K: Italian ryegrass, herbicidal effect rating ([18]; AAH 80 g/ha): 0 (Herbicidal rate of 5% or less (almost no effect))
- L: windgrass, herbicidal effect rating ([19]; AAH 80 g/ha): 0 (Herbicidal rate of 5% or less (almost no effect))
- effect on Italian ryegrass (K) ([20]; 80 g/ha): 0 (Herbicidal rate of 5% or less (almost no effect))
- herbicidal effect on D (Chinese sprangletop), rating 0-5 ([21]; 80 g/ha): 4 (Herbicidal rate of 70% or more and less than 90%)
- effect on wild oat (I) ([22]; 80 g/ha): 0 (Herbicidal rate of 5% or less (almost no effect))
- effect on lambsquarters (O) ([23]; 80 g/ha): 0 (Herbicidal rate of 5% or less (almost no effect))
- J: blackgrass, herbicidal effect rating ([24]; AAH 80 g/ha): 0 (Herbicidal rate of 5% or less (almost no effect))
- effect on barnyard grass (H) ([25]; 80 g/ha): 0 (Herbicidal rate of 5% or less (almost no effect))

Compound: COCCSCc1ccc(-c2sc3ccccc3c2-c2c(O)c(C)nn(C)c2=O)cc1 [1-251]
- effect on velvetleaf (M) ([1]; 320 g/ha): 5 (Herbicidal rate of 90% or more (almost completely withered))
- effect on green foxtail (G) ([2]; 320 g/ha): 5 (Herbicidal rate of 90% or more (almost completely withered))
- F: southern crabgrass, herbicidal effect rating ([3]; AAH 320 g/ha): 0 (Herbicidal rate of 5% or less (almost no effect))
- effect on southern crabgrass (F) ([4]; 320 g/ha): 1 (Herbicidal rate of 5% or more and less than 20%)
- O: lambsquarters, herbicidal effect rating ([5]; AAH 320 g/ha): 0 (Herbicidal rate of 5% or less (almost no effect))
- herbicidal effect on H (barnyard grass), rating 0-5 ([6]; 320 g/ha): 5 (Herbicidal rate of 90% or more (almost completely withered))
- herbicidal effect on E (rice flat sedge), rating 0-5 ([7]; 320 g/ha): 3 (Herbicidal rate of 40% or more and less than 70%)
- H: barnyard grass, herbicidal effect rating ([8]; AAH 320 g/ha): 0 (Herbicidal rate of 5% or less (almost no effect))
- M: velvetleaf, herbicidal effect rating ([9]; AAH 320 g/ha): 0 (Herbicidal rate of 5% or less (almost no effect))
- effect on blackgrass (J) ([10]; 320 g/ha): 3 (Herbicidal rate of 40% or more and less than 70%)
- R: persian speedwell, herbicidal effect rating ([11]; AAH 320 g/ha): 4 (Herbicidal rate of 70% or more and less than 90%)
- effect on persian speedwell (R) ([12]; 320 g/ha): 5 (Herbicidal rate of 90% or more (almost completely withered))
- N: redroot pigweed, herbicidal effect rating ([13]; AAH 320 g/ha): 0 (Herbicidal rate of 5% or less (almost no effect))
- I: wild oat, herbicidal effect rating ([14]; AAH 320 g/ha): 0 (Herbicidal rate of 5% or less (almost no effect))
- effect on windgrass (L) ([15]; 320 g/ha): 0 (Herbicidal rate of 5% or less (almost no effect))
- P: chickweed, herbicidal effect rating ([16]; AAH 320 g/ha): 0 (Herbicidal rate of 5% or less (almost no effect))
- G: green foxtail, herbicidal effect rating ([17]; AAH 320 g/ha): 0 (Herbicidal rate of 5% or less (almost no effect))
- K: Italian ryegrass, herbicidal effect rating ([18]; AAH 320 g/ha): 0 (Herbicidal rate of 5% or less (almost no effect))
- L: windgrass, herbicidal effect rating ([19]; AAH 320 g/ha): 0 (Herbicidal rate of 5% or less (almost no effect))
- effect on Italian ryegrass (K) ([20]; 320 g/ha): 4 (Herbicidal rate of 70% or more and less than 90%)
- herbicidal effect on D (Chinese sprangletop), rating 0-5 ([21]; 320 g/ha): 3 (Herbicidal rate of 40% or more and less than 70%)
- effect on wild oat (I) ([22]; 320 g/ha): 0 (Herbicidal rate of 5% or less (almost no effect))
- effect on lambsquarters (O) ([23]; 320 g/ha): 4 (Herbicidal rate of 70% or more and less than 90%)
- J: blackgrass, herbicidal effect rating ([24]; AAH 320 g/ha): 0 (Herbicidal rate of 5% or less (almost no effect))
- effect on barnyard grass (H) ([25]; 320 g/ha): 4 (Herbicidal rate of 70% or more and less than 90%)

Compound: Cc1nn(C)c(=O)c(-c2c(-c3cnccc3Cl)sc3ccc(F)cc23)c1O [2-385]
- herbicidal effect, F: southern crabgrass [3, 26]: 0 (Herbicidal rate of 5% or less (almost no effect))
- herbicidal effect, O: lambsquarters [5, 26]: 4 (Herbicidal rate of 70% or more and less than 90%)
- herbicidal effect on H: barnyard grass [6, 26]: 5 (Herbicidal rate of 90% or more (almost completely withered))
- herbicidal effect on E: rice flat sedge [7, 26]: 5 (Herbicidal rate of 90% or more (almost completely withered))
- herbicidal effect, H: barnyard grass [8, 26]: 0 (Herbicidal rate of 5% or less (almost no effect))
- herbicidal effect, M: velvetleaf [9, 26]: 2 (Herbicidal rate of 20% or more and less than 40%)
- herbicidal effect, R: persian speedwell [11, 26]: 5 (Herbicidal rate of 90% or more (almost completely withered))
- herbicidal effect, N: redroot pigweed [13, 26]: 3 (Herbicidal rate of 40% or more and less than 70%)
- herbicidal effect, I: wild oat [14, 26]: 3 (Herbicidal rate of 40% or more and less than 70%)
- herbicidal effect, P: chickweed [16, 26]: 3 (Herbicidal rate of 40% or more and less than 70%)
- herbicidal effect, G: green foxtail [17, 26]: 0 (Herbicidal rate of 5% or less (almost no effect))
- herbicidal effect, K: Italian ryegrass [18, 26]: 4 (Herbicidal rate of 70% or more and less than 90%)
- herbicidal effect, L: windgrass [19, 26]: 1 (Herbicidal rate of 5% or more and less than 20%)
- herbicidal effect on D: Chinese sprangletop [21, 26]: 5 (Herbicidal rate of 90% or more (almost completely withered))
- herbicidal effect, J: blackgrass [24, 26]: 0 (Herbicidal rate of 5% or less (almost no effect))
